Data taken from patent US20160030391A1, “METHODS AND COMPOSITIONS FOR IMPROVING COGNITIVE FUNCTION” (THE JOHNS HOPKINS UNIVERSITY, priority 2013, published 2016).

Tested on: aged-impaired (AI) rats
Test: eight-arm Radial Arm Maze task, one-hour delay, aged-impaired rats
Assay type: in vivo, rat
Conditions: for average no. of errors±SEM: one-hour delay; for effective in reducing the number of errors by AI rats in the radial arm maze: levetiracetam on its own
Method: The effects of levetiracetam on the spatial memory retention of aged-impaired (AI) rats were assessed in a Radial Arm Maze (RAM) behavioral task using vehicle control and five different dosage levels of levetiracetam (1.25 mg/kg/day, 2.5 mg/kg/day, 5 mg/kg/day, 10 mg/kg/day and 20 mg/kg/day). RAM behavioral tasks were preformed on ten AI rats. All six treatment conditions were tested on all ten rats, as described above for the MWM test. The RAM apparatus used consisted of eight equidistantly-spaced arms. An elevated maze arm (7 cm width x 75 cm length) projected from each facet of an octagonal center platform (30 cm diameter, 51.5 cm height). Clear side walls on the arms were 10 cm high and were angled at 65° to form a trough. A food well (4 cm diameter, 2 cm deep) was located at the distal end of each arm. Froot Loops™ (Kellogg Company) were used as rewards. Blocks constructed of Plexiglas™ (30 cm height x 12 cm width) could be positioned to prevent entry to any arm. Numerous extra maze cues surrounding the apparatus were also provided. The AI rats were initially subjected to a pre-training test (Chappell et al. Neuropharmacology 37: 481-487, 1998). The pre-training test consisted of a habituation phase (4 days), a training phase on the standard win-shift task (18 days) and another training phase (14 days) in which a brief delay was imposed between presentation of a subset of arms designated by the experimenter (e.g., 5 arms available and 3 arms blocked) and completion of the eight-arm win-shift task (i.e., with all eight arms available). In the habituation phase, rats were familiarized to the maze for an 8-minute session on four consecutive days. In each of these sessions food rewards were scattered on the RAM, initially on the center platform and arms and then progressively confined to the arms. After this habituation phase, a standard training protocol was used, in which a food pellet was located at the end of each arm. Rats received one trial each day for 18 days. Each daily trial terminated when all eight food pellets had been obtained or when either 16 choices were made or 15 minutes had elapsed. After completion of this training phase, a second training phase was carried out in which the memory demand was increased by imposing a brief delay during the trial. At the beginning of each trial, three arms of the eight-arm maze were blocked. Rats were allowed to obtain food on the five arms to which access was permitted during this initial ‘information phase’ of the trial. Rats were then removed from the maze for 60 seconds, during which time the barriers on the maze were removed, thus allowing access to all eight arms. Rats were then placed back onto the center platform and allowed to obtain the remaining food rewards during this ‘retention test’ phase of the trial. The identity and configuration of the blocked arms varied across trials. The number of “errors” the AI rats made during the retention test phase was tracked. An error occurred in the trial if the rats entered an arm from which food had already been retrieved in the pre-delay component of the trial, or if it re-visited an arm in the post-delay session that had already been visited. After completion of the pre-training test, rats were subjected to trials with more extended delay intervals, i.e., a one-hour delay, between the information phase (presentation with some blocked arms) and the retention test (presentation of all arms). During the delay interval, rats remained off to the side of the maze in the testing room, on carts in their individual home cages. AI rats were pretreated 30-40 minutes before daily trials with a one-time shot of the following six conditions: 1) vehicle control (0.9% saline solution); 2) levetiracetam (1.25 mg/kg/day); 3) levetiracetam (2.5 mg/kg/day); 4) levetiracetam (5 mg/kg/day); 5) levetiracetam (10 mg/kg/day); 6) levetiracetam (20 mg/kg/day); through intraperitoneal (i.p.) injection. Injections were given every other day with intervening washout days. […]

## CC[C@@H](C(N)=O)N1CCCC1=O [levetiracetam, (2S)-2-(2-oxopyrrolidin-1-yl)butanamide]
Given acutely, AI rats
  effective doses of levetiracetam used in the animal model: 5 to 10 mg/kg
Levetiracetam 5 mg/kg/day i.p.
  average no. of errors±SEM: 0.75±0.32
Levetiracetam 10 mg/kg/day i.p.
  average no. of errors±SEM: 0.80±0.27
Levetiracetam 20 mg/kg
  performance of AI rats in the radial maze task: fails to improve the performance
1.25 mg/kg
  effective in reducing the number of errors by AI rats in the radial arm maze: not
2.5 mg/kg
  effective in reducing the number of errors by AI rats in the radial arm maze: not
5-10 mg/kg
  effective in reducing the number of errors by AI rats in the radial arm maze: effective
